This experiment is described as follows: blockers of an Epstein-Barr virus protein-peptide interaction – biochemical, fluorescence polarization, dose response (AID 1419). Particulars: cell-free protein-peptide binding, 2 h; for fold change: measured here: P channel fold over control, at 54 µM.

Results on 66 compounds are retold here after PubChem BioAssay AID1419 (Emory University Molecular Libraries Screening Center, 2008).

In general, IC50 refers to the concentration at which inhibition is half-maximal.

The source made the active and inactive calls. The rule behind the calls is not given here.

In the case of `OCCNc1nc(Nc2ccc(Br)cc2)nc2ccccc12`, the IC50 is > 54 µM (inactive) and the fold change was determined as 0.987.

In the case of `CN1Cc2c(c(C#N)c(N)n(C)c2=S)CC1(C)C`, the IC50 was > 54 µM (inactive) and the fold change was 1.89.

Consider `O=C(OCCN1C(=O)c2cccc3c(N4CCOCC4)ccc(c23)C1=O)c1cc(Cl)cc(Cl)c1`, for which the IC50 was 1.42 µM and the fold change came to 49.6.

Take `CCOc1ccc(-c2nn(-c3ccccc3)cc2/C=C2\SC(=S)N(C3CCS(=O)(=O)C3)C2=O)cc1` (configuration not stated): the IC50 was 2.12 µM and the fold change came to 10.9.

`N#CC1(C#N)CC(C=O)=C(N)C1(C#N)CC(=O)C12CC3CC(CC(C3)C1)C2` (configuration not stated): the IC50 is > 54 µM (inactive) and the fold change stood at 0.933.

Consider `O=C(O)CCC(=O)NCCC1=c2ccccc2=N/C1=C\c1c(O)n(Cc2ccc(F)cc2)c(=S)[nH]c1=O`, for which the IC50 is 4.53 µM and the fold change was 1.16.

In the case of `O=C1c2cccc3c([N+](=O)[O-])ccc(c23)C(=O)N1CC1CCCO1` (configuration not stated), the half-maximal inhibitory concentration (IC50) was 13.8 µM and the fold change amounted to 2.37.

As for `CCc1ccc(NC(=O)c2ccc3ncsc3c2)cc1`, the IC50 is > 54 µM (inactive) and the fold change was determined as 0.87.

As for `COc1ccc(Cn2c3ccc(OC)cc3c3nc4ccccc4nc32)cc1`, the IC50 was 3.27 µM and the fold change worked out at 3.38.

On to `Fc1ccccc1C(c1nnnn1C1CCCC1)N1CCN(Cc2ccccc2)CC1` (configuration not stated), for which the IC50 was > 54 µM (inactive) and the fold change was determined as 1.05.

For the compound `O=S(=O)(Nc1nc2ccccc2nc1N1CCN(c2ccccn2)CC1)c1ccc(Cl)cc1`, the IC50 is > 54 µM (inactive) and the fold change worked out at 2.14.

Consider `CCN1C(=O)/C(=C/C2=Cc3ccccc3OC2C)SC1=S` (configuration not stated), for which the 50% inhibitory concentration (IC50) is 17.2 µM and the fold change stood at 5.33.

Turning to `O=c1[nH]c(C(Cl)Cl)nc2sc3c(c12)CCN(Cc1ccccc1)C3`, the IC50 is 11.8 µM and the fold change was 2.

For the compound `O=C(Nc1ccncc1)Nc1ccc(F)cc1F`, the IC50 is > 54 µM (inactive) and the fold change amounted to 1.04.

Consider `Nc1c(C(=O)NC2CC2)sc2nc3c(c(-c4ccco4)c12)CC/C3=C/c1ccco1`, for which the IC50 is 1.32 µM and the fold change was 3.52.

As for `Nc1cc2nsnc2cc1Br`, the 50% inhibitory concentration (IC50) was 28.6 µM and the fold change came to 1.84.

As to `CCn1c2ccccc2c2cc(NC(=O)c3ccc(=O)oc3)ccc21`, the IC50 was > 54 µM (inactive) and the fold change turned out to be 1.77.

For `Cc1cc(C)c[n+](-c2nc3ccccc3nc2[N-]S(=O)(=O)c2ccc(Br)s2)c1`, the half-inhibitory concentration (IC50) is 7.26 µM and the fold change was determined as 3.69.

With `CN(C)c1ccc(/C=C/C(=O)c2cccc(Br)c2)cc1`, the IC50 was 8.66 µM and the fold change was 11.4.

Consider `N=C1CCC(=N)c2c1c(O)c1ccccc1c2O`, for which the 50% inhibitory concentration (IC50) is under 0.42 µM and the fold change came out at 41.5.

Regarding `CCCNC(=O)COC(=O)c1[nH]c(C)c(C(=O)OCC)c1C`, the IC50 is > 54 µM (inactive) and the fold change stood at 0.937.

As for `Cc1ccc(N2C(=O)[C@@H]3[C@H](C2=O)C2c4ccccc4C=CN2[C@@H]3C(=O)c2ccco2)cc1` (some centres not stated), the IC50 was 5.71 µM and the fold change was 2.76.

Regarding `N#C/C(=C\c1sc(N2CCOCC2)nc1-c1ccccc1)C(=O)Nc1cccc2ccccc12`, the IC50 is 30.8 µM (inactive) and the fold change was 3.26.

Consider `Cc1ccccc1-n1c(SCc2c(C)noc2C)nnc1-c1cccnc1`, for which the IC50 is 3.57 µM and the fold change worked out at 4.88.

Regarding `Cc1ccc(C(=O)ONc2ccc(N=NC(=O)c3ccccc3O)cc2)cc1`, the IC50 is 4.35 µM and the fold change worked out at 0.99.

As to `CC(=O)N/N=C/c1cc(C(C)(C)C)cc(/C=N/NC(C)=O)c1O`, the half-inhibitory concentration (IC50) was 4.05 µM and the fold change was 3.13.

Regarding `N=C1S/C(=C\c2ccc(-c3cccc(Cl)c3)o2)C(=O)N1c1nccs1`, the IC50 is 5.78 µM and the fold change is 2.

`CC(C)Nc1nc(Cl)nc(N(C#N)CN2C(=O)c3ccccc3S2(=O)=O)n1`: the IC50 was > 54 µM (inactive) and the fold change was found to be 0.923.

With `Cc1c(N2C(=O)c3ccc4c5c(ccc(c35)C2=O)CC4)c(=O)n(-c2ccccc2)n1C`, the IC50 was > 54 µM (inactive) and the fold change is 1.19.

In the case of `O=C1CCCC2=C1Sc1ccccc1N2`, the 50% inhibitory concentration (IC50) was 5.07 µM and the fold change was 1.99.

With `Cn1cc(/C=C2\SC(=S)N(NC(=O)c3ccccc3)C2=O)c2ccccc21`, the IC50 was > 54 µM (inactive) and the fold change turned out to be 5.3.

As to `CCOc1cc(C=C2C(=O)c3ccccc3C2=O)ccc1OCC(=O)Nc1ccc(C)cc1`, the IC50 was 2.18 µM and the fold change was 11.6.

On to `COc1ccc(NC(=O)N(CCc2ccccc2)Cc2cc3c(C)cc(C)cc3[nH]c2=O)cc1`, for which the IC50 was > 54 µM (inactive) and the fold change came out at 0.987.

`Cc1cc(-c2nc3c4c5c(sc4[nH]c(=O)n3n2)CCC5)c(C)o1`: the IC50 is 21.8 µM and the fold change was determined as 1.2.

Turning to `O=[N+]([O-])c1cccc(-c2cn3nc(-c4ccccc4)c(-c4ccccc4)nc3n2)c1`, the half-inhibitory concentration (IC50) is 5.71 µM and the fold change was found to be 6.61.

On to `CCOc1ccc(N=C2NC(=O)S/C2=C\c2ccc(N(C)C)cc2)cc1`, for which the IC50 was 5.8 µM and the fold change was found to be 8.81.

On to `Cc1nn(C)c(C)c1CN(C)C(=O)C1c2ccccc2Oc2ccccc21`, for which the 50% inhibitory concentration (IC50) is 3.77 µM and the fold change came out at 4.27.

Take `Cc1cc(C)cc(-n2c(O)c(C=Nc3ccc(N4CCOCC4)cc3)c(=O)[nH]c2=S)c1`: the IC50 is > 54 µM (inactive) and the fold change was 2.23.

Regarding `CC1=CC(=C(C#N)c2nc3ccccc3s2)C=C(C)N1c1ccc(F)cc1`, the 50% inhibitory concentration (IC50) was 7.09 µM and the fold change amounted to 38.9.

For `O=C(CSc1nnc(SCc2ccccc2)s1)N/N=C/C=C/c1ccco1`, the IC50 was > 54 µM (inactive) and the fold change was 1.04.

Turning to `CC(C)(CCl)C(=O)Nc1ccc(OC(F)(F)F)cc1`, the IC50 was > 54 µM (inactive) and the fold change came to 1.14.

With `COC(CNC(=O)c1ccc2c3c(onc13)-c1ccccc1C2=O)OC`, the IC50 is under 0.42 µM and the fold change was found to be 137.

Take `N#C/C(=C\C1=C(N2CCOCC2)C(=C\c2ccc(Cl)cc2)/CC1)C(=O)Nc1ccccc1F`: the IC50 is 3.43 µM and the fold change came out at 4.49.

As to `CCN(CC)c1ccc2cc(S(=O)(=O)c3ccc(C)cc3)c(=O)oc2c1`, the half-inhibitory concentration (IC50) is 6.25 µM and the fold change was found to be 36.6.

For `O=C(Cn1cc2c(n1)CCCC2)NCc1ccccn1`, the IC50 is 25.9 µM and the fold change worked out at 1.54.

Take `COc1ccc(/C=C2\SC(c3ccc(C)cc3)=NC2=O)cc1OC`: the IC50 was > 54 µM (inactive) and the fold change was found to be 8.37.

For `CC(=O)Nc1nc(C)c(-c2csc(Nc3cccc([N+](=O)[O-])c3)n2)s1`, the IC50 is > 54 µM (inactive) and the fold change is 0.71.

`Cc1nc(Cl)c2c(n1)NC1=C(O2)C(=O)CCC1`: the half-inhibitory concentration (IC50) was 0.86 µM and the fold change was 22.3.

As for `O=C(/C(=C(\[O-])c1ccccc1)[n+]1ccc2ccccc2c1)c1ccccc1`, the IC50 was 4.31 µM and the fold change is 3.02.

`Cc1cc(S(=O)(=O)Nc2nc(CN3CCOCC3)nc3sc4c(c23)CCCC4)ccc1F`: the IC50 is > 54 µM (inactive) and the fold change was 1.04.

`O=c1cc(C(F)(F)F)c2cc3c4c(c2o1)CCCN4CCC3`: the 50% inhibitory concentration (IC50) is under 0.42 µM and the fold change stood at 57.5.

`Cc1cc[n+](-c2[nH]c(=O)sc2/C=N/NC([S-])=Nc2ccccc2)cc1C`: the IC50 was > 54 µM (inactive) and the fold change turned out to be 1.95.

`Oc1ccc2ccccc2c1N=Nc1ccc(F)cc1`: the IC50 was > 54 µM (inactive) and the fold change was determined as 1.24.

Regarding `CCN(CC)c1ccc2oc(=O)c(C)nc2c1`, the IC50 is 4.76 µM and the fold change is 9.58.

As to `Cc1ccc(NC(=O)CN2C(=O)/C(=C3\SC(=S)N(C4CCS(=O)(=O)C4)C3=O)c3ccccc32)cc1` (configuration not stated), the half-inhibitory concentration (IC50) is 20.4 µM and the fold change was determined as 0.67.

As for `CCC(C)NC(=O)c1ccc(CSCc2cccc(F)c2)o1` (configuration not stated), the IC50 was > 54 µM (inactive) and the fold change was 1.08.

Regarding `O=C(Nc1ccc(Cl)cc1)Nc1nnc(-c2ccncc2)s1`, the IC50 was > 54 µM (inactive) and the fold change was determined as 1.08.

Turning to `O=C(OCCN1C(=O)c2cccc3c(N4CCOCC4)ccc(c23)C1=O)c1ccc(Cl)cc1Cl`, the 50% inhibitory concentration (IC50) is 1.81 µM and the fold change stood at 84.3.

As to `CCC1(CC)NC(=O)N(CC(=O)Nc2sc3c(c2C(N)=O)CCC3)C1=O`, the IC50 was > 54 µM (inactive) and the fold change worked out at 1.23.

In the case of `CCC1=NN2C(=N)/C(=C\c3ccc(OCc4cc(=O)n5nc(CC)sc5n4)c(OC)c3)C(=O)N=C2S1`, the IC50 was > 54 µM (inactive) and the fold change stood at 1.08.

Regarding `O=c1[nH]n2c(=O)c3c([nH]c2c1N=Nc1cccc(Cl)c1)CCC3`, the IC50 is > 54 µM (inactive) and the fold change stood at 0.94.

Consider `CN1C(=O)C(=Cc2ccc(N3CCCCCC3)cc2)C(=O)N(C)C1=O`, for which the IC50 was 6.16 µM and the fold change stood at 11.1.

As to `CN1/C(=C\C=C\C2=[N+](C)c3ccc4ccccc4c3C2(C)C)C(C)(C)c2ccccc21`, the concentration for half-maximal inhibition (IC50) was 3.78 µM and the fold change turned out to be 4.43.

For the compound `CC1=CC(=C(C#N)c2nc3ccccc3s2)C=C(C)N1c1ccc(F)cc1F`, the half-inhibitory concentration (IC50) is 3.98 µM and the fold change amounted to 11.2.

For the compound `COc1cc(C2CC(C(F)(F)F)n3ncc(C(=O)O)c3N2)cc(OC)c1OC` (configuration not stated), the IC50 is > 54 µM (inactive) and the fold change was 0.997.

As for `Cc1ccc(-c2cn3nc(-c4ccccc4)c(-c4ccccc4)nc3n2)cc1`, the half-inhibitory concentration (IC50) was 1.31 µM and the fold change was found to be 37.6.
